Measured values published in paper PMC6171417, “Carbonic anhydrase inhibition with a series of novel benzenesulfonamide-triazole conjugates” (Journal of Enzyme Inhibition and Medicinal Chemistry, 2018).

Tests used:
Test in all cases: cells
[1] = tested on: ACHN; set-up: species or system NCI human tumour cell line panel; NCI one-dose anti-proliferative screen, human tumour cell line panel, growth inhibition percent (GI%); conditions: Homo sapiens, ACHN; growth inhibition (GI%), single dose
[2] = tested on: BT-549; set-up: species or system NCI human tumour cell line panel; NCI one-dose anti-proliferative screen, human tumour cell line panel, growth inhibition percent (GI%); conditions: Homo sapiens, BT-549; growth inhibition (GI%), single dose
[3] = tested on: KM12; set-up: species or system NCI human tumour cell line panel; NCI one-dose anti-proliferative screen, human tumour cell line panel, growth inhibition percent (GI%); conditions: Homo sapiens, KM12; growth inhibition (GI%), single dose
[4] = tested on: SF-268; set-up: species or system NCI human tumour cell line panel; NCI one-dose anti-proliferative screen, human tumour cell line panel, growth inhibition percent (GI%); conditions: Homo sapiens, SF-268; growth inhibition (GI%), single dose
[5] = tested on: MDA-MB-231/ATCC; set-up: species or system NCI human tumour cell line panel; NCI one-dose anti-proliferative screen, human tumour cell line panel, growth inhibition percent (GI%); conditions: Homo sapiens, MDA-MB-231; growth inhibition (GI%), single dose
[6] = tested on: MALME-3M; set-up: species or system NCI human tumour cell line panel; NCI one-dose anti-proliferative screen, human tumour cell line panel, growth inhibition percent (GI%); conditions: Homo sapiens, Malme-3M; growth inhibition (GI%), single dose
[7] = tested on: MDA-MB-468; set-up: species or system NCI human tumour cell line panel; NCI one-dose anti-proliferative screen, human tumour cell line panel, growth inhibition percent (GI%); conditions: Homo sapiens, MDA-MB-468; growth inhibition (GI%), single dose
[8] = tested on: SK-MEL-2; set-up: species or system NCI human tumour cell line panel; NCI one-dose anti-proliferative screen, human tumour cell line panel, growth inhibition percent (GI%); conditions: Homo sapiens, SK-MEL-2; growth inhibition (GI%), single dose
[9] = tested on: SF-295; set-up: species or system NCI human tumour cell line panel; NCI one-dose anti-proliferative screen, human tumour cell line panel, growth inhibition percent (GI%); conditions: Homo sapiens, SF-295; growth inhibition (GI%), single dose
[10] = tested on: TK-10; set-up: species or system NCI human tumour cell line panel; NCI one-dose anti-proliferative screen, human tumour cell line panel, growth inhibition percent (GI%); conditions: Homo sapiens, TK-10; growth inhibition (GI%), single dose
[11] = tested on: SF-539; set-up: species or system NCI human tumour cell line panel; NCI one-dose anti-proliferative screen, human tumour cell line panel, growth inhibition percent (GI%); conditions: Homo sapiens, SF-539; growth inhibition (GI%), single dose
[12] = tested on: KM12; set-up: species or system NCI human tumour cell line panel; conditions: Homo sapiens, KM12; growth inhibition (GI%), single dose
[13] = tested on: A549/ATCC; set-up: species or system NCI human tumour cell line panel; conditions: Homo sapiens, A549; growth inhibition (GI%), single dose
[14] = tested on: M14; set-up: species or system NCI human tumour cell line panel; conditions: Homo sapiens, M14; growth inhibition (GI%), single dose
[15] = tested on: 786-0; set-up: species or system NCI human tumour cell line panel; conditions: Homo sapiens, 786-0; growth inhibition (GI%), single dose
[16] = tested on: SR; set-up: species or system NCI human tumour cell line panel; conditions: Homo sapiens, SR; growth inhibition (GI%), single dose
[17] = tested on: NCI-H322M; set-up: species or system NCI human tumour cell line panel; conditions: Homo sapiens, NCI-H322M; growth inhibition (GI%), single dose
[18] = tested on: MDA-MB-435; set-up: species or system NCI human tumour cell line panel; conditions: Homo sapiens, MDA-MB-435; growth inhibition (GI%), single dose
[19] = tested on: HL-60(TB); set-up: species or system NCI human tumour cell line panel; conditions: Homo sapiens, HL-60; growth inhibition (GI%), single dose
[20] = tested on: RPMI-8226; set-up: species or system NCI human tumour cell line panel; conditions: Homo sapiens, RPMI-8226; growth inhibition (GI%), single dose
[21] = tested on: LOX IMVI; set-up: species or system NCI human tumour cell line panel; conditions: Homo sapiens, LOX IMVI; growth inhibition (GI%), single dose
[22] = tested on: HCC-2998; set-up: species or system NCI human tumour cell line panel; NCI one-dose anti-proliferative screen, human tumour cell line panel, growth inhibition percent (GI%); conditions: Homo sapiens, HCC 2998; growth inhibition (GI%), single dose
[23] = tested on: COLO 205; set-up: species or system NCI human tumour cell line panel; NCI one-dose anti-proliferative screen, human tumour cell line panel, growth inhibition percent (GI%); conditions: Homo sapiens, COLO 205; growth inhibition (GI%), single dose

Structure (SMILES)	inhibition at 10 µM [1]	inhibition at 10 µM [2]	inhibition at 10 µM [3]	inhibition at 10 µM [4]	inhibition at 10 µM [5]	inhibition at 10 µM [6]	inhibition at 10 µM [7]	inhibition at 10 µM [8]	inhibition at 10 µM [9]	inhibition at 10 µM [11]	also measured
N#Cc1nnn(-c2ccc(S(N)(=O)=O)cc2)c1NCC(=O)c1ccccc1 [compound 7, 7]	0.6%	2%	0.6%	6.5%	4.9%	3.6%	3.3%	2.2%	–	–	–
N#Cc1c(-c2ccc(Cl)cc2)nc2c(nnn2-c2ccc(S(N)(=O)=O)cc2)c1N [compound 16, 4-(7-amino-5-(4-chlorophenyl)-6-cyano-3H-[1,2,3]triazolo[4,5-b]pyridin-3-yl)benzenesulfonamide]	–	–	–	5.4%	24.2%	–	–	–	5.7%	–	–
N#Cc1nnn(-c2ccc(S(N)(=O)=O)cc2)c1/N=C/c1ccc(Cl)cc1 [compound 9, 9]	–	11.3%	0.5%	–	–	–	–	–	0.3%	–	inhibition at 10 µM [10]: 7.6%
N#Cc1nnn(-c2ccc(S(N)(=O)=O)cc2)c1NS(=O)(=O)c1ccccc1 [compound 11, N-(4-cyano-1-(4-sulfamoylphenyl)-1H-1,2,3-triazol-5-yl)benzenesulfonamide]	–	–	–	–	–	1.2%	–	–	–	3.2%	–
N#Cc1nnn(-c2ccc(S(N)(=O)=O)cc2)c1NC(=O)CCl [compound 5, 5]	–	–	–	–	–	–	–	–	–	–	inhibition at 10 µM [12]: 5.2%; inhibition at 10 µM [13]: 7.2%; inhibition at 10 µM [14]: 4.7%; inhibition at 10 µM [15]: 2.1%; inhibition at 10 µM [16]: 4.1%; inhibition at 10 µM [17]: 6.6%; inhibition at 10 µM [18]: 0.4%; inhibition at 10 µM [19]: 22.5%; inhibition at 10 µM [20]: 8.7%; inhibition at 10 µM [21]: 5.5%
Nc1nc(=S)[nH]c2c1nnn2-c1ccc(S(N)(=O)=O)cc1 [compound 18, 4-(7-amino-5-thioxo-4,5-dihydro-3H-[1,2,3]triazolo[4,5-d]pyrimidin-3-yl)benzenesulfonamide]	–	–	–	1.5%	14.8%	–	3.5%	–	–	–	–
CN(C)c1ccc(-c2nc3c(nnn3-c3ccc(S(N)(=O)=O)cc3)c(N)c2C#N)cc1 [compound 17, 4-(7-amino-6-cyano-5-(4-(dimethylamino)phenyl)-3H-[1,2,3]triazolo[4,5-b]pyridin-3-yl)benzenesulfonamide]	9.3%	0.3%	5.9%	3.9%	18%	0.4%	3.2%	2.3%	3.1%	2.7%	inhibition at 10 µM [22]: 3.9%; inhibition at 10 µM [23]: 17%
CCn1c(=S)[nH]c2c(nnn2-c2ccc(S(N)(=O)=O)cc2)c1=N [compound 20, 4-(6-ethyl-7-imino-5-thioxo-4,5,6,7-tetrahydro-3H-[1,2,3]triazolo[4,5-d]pyrimidin-3-yl)benzenesulfonamide]	–	–	–	–	–	–	–	8.2%	–	–	inhibition at 10 µM [22]: 2.2%
N#Cc1nnn(-c2ccc(S(N)(=O)=O)cc2)c1N [compound 3, 3]	1.3%	–	–	2.8%	–	–	–	–	–	1.9%	inhibition at 10 µM [23]: 5.1%; inhibition at 10 µM [10]: 9.2%
